In PubChem BioAssay AID1918995 (Molecular Pharmacology Branch, DTP, NCI, 2023):

Test system: 324938-238-R-J1-PDC complex spheroid growth, % test/control
Test: Anticancer human tumor 324938-238-R-J1-PDC patient-derived bladder carcinoma cell line growth inhibition [AhR]
Details: for IC50: curve of first compound; for viability, T/C: stronger effect = lower value
In short: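 Complex tumor spheroids co-cultured with HUVEC and human MSC stroma; AhR antagonists tested in combination with standard-of-care and investigational agents. Top concentration at or near clinical Cmax (else 10 microM), half-log dilutions; growth expressed as percent test/control.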

[1] = second compound 0.1 µM, first compound 0.0316 µM
[2] = second compound 0.1 µM, first compound 0.1 µM
[3] = second compound 0.1 µM, first compound 0.316 µM
[4] = second compound 0.1 µM, first compound 1 µM
[5] = second compound 0.316 µM, first compound 0.0316 µM
[6] = second compound 0.316 µM, first compound 0.1 µM
[7] = second compound 0.316 µM, first compound 0.316 µM
[8] = second compound 0.316 µM, first compound 1 µM
[9] = second compound 1 µM, first compound 0.0316 µM
[10] = second compound 1 µM, first compound 0.1 µM
[11] = second compound 1 µM, first compound 0.316 µM
[12] = second compound 1 µM, first compound 1 µM
[13] = second compound 3.16 µM, first compound 0.0316 µM
[14] = second compound 3.16 µM, first compound 0.1 µM
[15] = second compound 3.16 µM, first compound 0.316 µM
[16] = second compound 3.16 µM, first compound 1 µM
[17] = second compound 10 µM, first compound 0.0316 µM
[18] = second compound 10 µM, first compound 0.1 µM
[19] = second compound 10 µM, first compound 0.316 µM
[20] = second compound 10 µM, first compound 1 µM
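Note: spheroids exposed to agents for seven days before viability read.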

| Structure (SMILES) | IC50 (second compound 0.1 µM) [nM] | IC50 (second compound 0.316 µM) [nM] | IC50 (second compound 1 µM) [nM] | IC50 (second compound 3.16 µM) [nM] | IC50 (second compound 10 µM) [nM] | viability, T/C [1] [%] | viability, T/C [2] [%] | viability, T/C [3] [%] | viability, T/C [4] [%] | viability, T/C [5] [%] | viability, T/C [6] [%] | viability, T/C [7] [%] | viability, T/C [8] [%] | viability, T/C [9] [%] | viability, T/C [10] [%] | viability, T/C [11] [%] | viability, T/C [12] [%] | viability, T/C [13] [%] | viability, T/C [14] [%] | viability, T/C [15] [%] | also measured |
| --- | --- | --- | --- | --- | --- | --- | --- | --- | --- | --- | --- | --- | --- | --- | --- | --- | --- | --- | --- | --- | --- |
| CC1COCCN1c1cc(-c2ccnn2C)c2ccnc(-c3ccn[nH]3)c2n1 (stereo not given) + CC(CO)NC(=O)c1cc(-c2ccc(Cl)cc2)nn(-c2cnn(C)c2)c1=O | 81.3 | 65 | 67.1 | 36.7 | 22.5 | 75.2 | 44.6 | 29.7 | 18.6 | 72.7 | 36.6 | 26.4 | 21.6 | 72.8 | 37.7 | 24.1 | 20.4 | 51 | 31.1 | 26.7 | viability, T/C (second compound 0.1 µM, first compound 0.00316 µM): 97%; viability, T/C (second compound 0.1 µM, first compound 0.01 µM): 110%; viability, T/C (second compound 0.316 µM, first compound 0.00316 µM): 88.6%; viability, T/C (second compound 0.316 µM, first compound 0.01 µM): 102%; viability, T/C (second compound 1 µM, first compound 0.00316 µM): 88.7%; viability, T/C (second compound 1 µM, first compound 0.01 µM): 86.6%; viability, T/C (second compound 3.16 µM, first compound 0.00316 µM): 75.9%; viability, T/C (second compound 3.16 µM, first compound 0.01 µM): 79%; viability, T/C [16]: 18.7%; viability, T/C (second compound 10 µM, first compound 0.00316 µM): 62.6%; viability, T/C (second compound 10 µM, first compound 0.01 µM): 63.7%; viability, T/C [17]: 43.9%; viability, T/C [18]: 29%; viability, T/C [19]: 24.8%; viability, T/C [20]: 20.1% |
| CC1COCCN1c1cc(C2(S(C)(=N)=O)CC2)nc(-c2ccnc3[nH]ccc23)n1 (stereo not given) + CC(CO)NC(=O)c1cc(-c2ccc(Cl)cc2)nn(-c2cnn(C)c2)c1=O | 2180 | 1580 | 2110 | 1760 | 916 | 95.6 | 109 | 89.6 | 69.8 | 103 | 97.5 | 91.5 | 57.2 | 89.4 | 95.9 | 98.1 | 72 | 81.3 | 77.9 | 76.3 | viability, T/C (second compound 0.1 µM, first compound 3.16 µM): 41.4%; viability, T/C (second compound 0.1 µM, first compound 10 µM): 19.8%; viability, T/C (second compound 0.316 µM, first compound 3.16 µM): 37.3%; viability, T/C (second compound 0.316 µM, first compound 10 µM): 20.6%; viability, T/C (second compound 1 µM, first compound 3.16 µM): 38.6%; viability, T/C (second compound 1 µM, first compound 10 µM): 22.5%; viability, T/C [16]: 65.6%; viability, T/C (second compound 3.16 µM, first compound 3.16 µM): 34%; viability, T/C (second compound 3.16 µM, first compound 10 µM): 16.7%; viability, T/C [17]: 70.3%; viability, T/C [18]: 73.6%; viability, T/C [19]: 68.8%; viability, T/C [20]: 47.3%; viability, T/C (second compound 10 µM, first compound 3.16 µM): 28.8%; viability, T/C (second compound 10 µM, first compound 10 µM): 20% |
